Measured values published in US9288993B2, “Copper resistant, fengycin-producing Bacillus mojavensis strain for controlling vegetable pathogens, its use and compositions containing it” (Szegedi Tudományegyetem, priority 2011, dated 2016).
Read-outs that look alike come from different tables or passages of the source.

Experiments:
Phytophthora infestans = conditions: 100 ppm copper
plant pathogen fungi = test: Fengycin concentration of diluted culture inhibiting plant pathogen fungi; format: cell-based; conditions: culture in glutaminic acid/glucose solution diluted 10-20 times

| Molecule | growth of Phytophthora infestans strains (Phytophthora infestans) | growth of P. syringae strains (P. syringae; 200 ppm copper) | growth of P. syringae strains (P. syringae; 400 ppm copper) | fengycin concentration which achieves a complete inhibition of the majority of the plant pathogen fungi (plant pathogen fungi) [mg/L] |
| --- | --- | --- | --- | --- |
| O=S(=O)([O-])[O-].[Cu+2] [copper, copper-sulphate] | did not show growth anymore | all increased | none of them | – |
| fengycin | – | – | – | 10 to 12 |
